# From US12077537B2 (Gilead Sciences, Inc., priority 2020, dated 2024)
# Test system: HIV-IIIb
# Experiment: Antiviral assay in MT4 cells
# Assay type: cell-based
# Details: Human immunodeficiency virus 1, MT4, 120 h; MT-4 cells mixed with HIV-IIIb at m.o.i. 0.003; 5 days at 37° C.; CellTiter-Glo luminescence; 50% decrease in signal, a measure of HIV-1 replication
# Method in brief: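 MT-4 cells were infected with HIV-IIIb at m.o.i. 0.003 for 1 hour, then added to 3-fold serially diluted compound (10 concentrations, quadruplicate) in medium with 10% FBS. After 5 days at 37° C, cell viability was read by CellTiter-Glo chemiluminescence.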
row,Structure (SMILES),EC50
1,"Cc1nc2nc([C@H](Cc3cc(F)cc(F)c3)NC(=O)Cn3nc(C(F)F)c4c3C(F)(F)[C@@H]3C[C@H]43)c(-c3ccc(Cl)c4c(NS(C)(=O)=O)nn(C)c34)cc2[nH]1 [Example 99, N—((S)-1-(6-(4-chloro-1-methyl-3-(methylsulfonamido)-1H-indazol-7-yl)-2-methyl-1H-imidazo[4,5-b]pyridin-5-yl)-2-(3,5-difluorophenyl)ethyl)-2-((3bS,4aR)-3-(difluoromethyl)-5,5-difluoro-3b,4,4a,5-tetrahydro-1H-cyclopropa[3,4]cyclopenta[1,2-c]pyrazol-1-yl)acetamide]",1.6 nM
2,"Cc1nc2nc([C@H](Cc3cc(F)cc(F)c3)NC(=O)Cn3nc(C(F)(F)F)c4c3C(F)(F)[C@@H]3C[C@H]43)c(-c3ccc(Cl)c4c(NS(C)(=O)=O)nn(C)c34)cc2[nH]1 [Example 100, N—((S)-1-(6-(4-chloro-1-methyl-3-(methylsulfonamido)-1H-indazol-7-yl)-2-methyl-1H-imidazo[4,5-b]pyridin-5-yl)-2-(3,5-difluorophenyl)ethyl)-2-((3bS,4aR)-5,5-difluoro-3-(trifluoromethyl)-3b,4,4a,5-tetrahydro-1H-cyclopropa[3,4]cyclopenta[1,2-c]pyrazol-1-yl)acetamide]",2.4 nM
3,"COCc1nc2nc([C@H](Cc3cc(F)cc(F)c3)NC(=O)Cn3nc(C(F)(F)F)c4c3C(F)(F)[C@@H]3C[C@H]43)c(-c3ccc(Cl)c4c(NS(C)(=O)=O)nn(C)c34)cc2[nH]1 [Example 101, N—((S)-1-(6-(4-chloro-1-methyl-3-(methylsulfonamido)-1H-indazol-7-yl)-2-(methoxymethyl)-1H-imidazo[4,5-b]pyridin-5-yl)-2-(3,5-difluorophenyl)ethyl)-2-((3bS,4aR)-5,5-difluoro-3-(trifluoromethyl)-3b,4,4a,5-tetrahydro-1H-cyclopropa[3,4]cyclopenta[1,2-c]pyrazol-1-yl)acetamide]",2.1 nM
4,"COCc1nc2nc([C@H](Cc3cc(F)cc(F)c3)NC(=O)Cn3nc(C(F)F)c4c3C(F)(F)[C@@H]3C[C@H]43)c(-c3ccc(Cl)c4c(NS(C)(=O)=O)nn(C)c34)cc2[nH]1 [Example 102, N—((S)-1-(6-(4-chloro-1-methyl-3-(methylsulfonamido)-1H-indazol-7-yl)-2-(methoxymethyl)-1H-imidazo[4,5-b]pyridin-5-yl)-2-(3,5-difluorophenyl)ethyl)-2-((3bS,4aR)-3-(difluoromethyl)-5,5-difluoro-3b,4,4a,5-tetrahydro-1H-cyclopropa[3,4]cyclopenta[1,2-c]pyrazol-1-yl)acetamide]",1.5 nM
5,"COCc1nc2nc([C@H](Cc3cc(F)cc(F)c3)NC(=O)Cn3nc(C(F)F)c4c3C(F)(F)[C@@H]3C[C@H]43)c(-c3ccc(Cl)c4c(N)nn(C)c34)cc2[nH]1 [Example 103, N—((S)-1-(6-(3-amino-4-chloro-1-methyl-1H-indazol-7-yl)-2-(methoxymethyl)-1H-imidazo[4,5-b]pyridin-5-yl)-2-(3,5-difluorophenyl)ethyl)-2-((3bS,4aR)-3-(difluoromethyl)-5,5-difluoro-3b,4,4a,5-tetrahydro-1H-cyclopropa[3,4]cyclopenta[1,2-c]pyrazol-1-yl)acetamide]",5.9 nM
6,"CC(C)c1nc2nc([C@H](Cc3cc(F)cc(F)c3)NC(=O)Cn3nc(C(F)F)c4c3C(F)(F)[C@@H]3C[C@H]43)c(-c3ccc(Cl)c4c(NS(C)(=O)=O)nn(C)c34)cc2[nH]1 [Example 104, N—((S)-1-(6-(4-chloro-1-methyl-3-(methylsulfonamido)-1H-indazol-7-yl)-2-isopropyl-TH-imidazo[4,5-b]pyridin-5-yl)-2-(3,5-difluorophenyl)ethyl)-2-((3bS,4aR)-3-(difluoromethyl)-5,5-difluoro-3b,4,4a,5-tetrahydro-TH-cyclopropa[3,4]cyclopenta[1,2-c]pyrazol-1-yl)acetamide]",4.4 nM
7,"Cn1nc(NS(C)(=O)=O)c2c(Cl)ccc(-c3cc4[nH]c(C(C)(C)O)nc4nc3[C@H](Cc3cc(F)cc(F)c3)NC(=O)Cn3nc(C(F)F)c4c3C(F)(F)[C@@H]3C[C@H]43)c21 [Example 105, N—((S)-1-(6-(4-chloro-1-methyl-3-(methylsulfonamido)-1H-indazol-7-yl)-2-(2-hydroxypropan-2-yl)-1H-imidazo[4,5-b]pyridin-5-yl)-2-(3,5-difluorophenyl)ethyl)-2-((3bS,4aR)-3-(difluoromethyl)-5,5-difluoro-3b,4,4a,5-tetrahydro-1H-cyclopropa[3,4]cyclopenta[1,2-c]pyrazol-1-yl)acetamide]",4.9 nM
8,"Cn1nc(NS(C)(=O)=O)c2c(Cl)ccc(-c3cc4[nH]c(C(C)(C)O)nc4nc3[C@H](Cc3cc(F)cc(F)c3)NC(=O)Cn3nc(C(F)(F)F)c4c3C(F)(F)[C@@H]3C[C@H]43)c21 [Example 106, N—((S)-1-(6-(4-chloro-1-methyl-3-(methylsulfonamido)-1H-indazol-7-yl)-2-(2-hydroxypropan-2-yl)-1H-imidazo[4,5-b]pyridin-5-yl)-2-(3,5-difluorophenyl)ethyl)-2-((3bS,4aR)-5,5-difluoro-3-(trifluoromethyl)-3b,4,4a,5-tetrahydro-1H-cyclopropa[3,4]cyclopenta[1,2-c]pyrazol-1-yl)acetamide]",6.4 nM

# More lines, now with the values ahead:
row,EC50,Structure (SMILES)
1,42.2 nM,"Cn1nc(NS(C)(=O)=O)c2c(Cl)ccc(-c3cc4c(nc3[C@H](Cc3cc(F)cc(F)c3)NC(=O)Cn3nc(C(F)(F)F)c5c3C(F)(F)[C@@H]3C[C@H]53)NCC(=O)N4)c21 [Example 107, N—((S)-1-(7-(4-chloro-1-methyl-3-(methylsulfonamido)-1H-indazol-7-yl)-2-oxo-1,2,3,4-tetrahydropyrido[2,3-b]pyrazin-6-yl)-2-(3,5-difluorophenyl)ethyl)-2-((3bS,4aR)-5,5-difluoro-3-(trifluoromethyl)-3b,4,4a,5-tetrahydro-1H-cyclopropa[3,4]cyclopenta[1,2-c]pyrazol-1-yl)acetamide]"
2,34.5 nM,"Cn1nc(NS(C)(=O)=O)c2c(Cl)ccc(-c3cc4c(nc3[C@H](Cc3cc(F)cc(F)c3)NC(=O)Cn3nc(C(F)F)c5c3C(F)(F)[C@@H]3C[C@H]53)NCC(=O)N4)c21 [Example 108, N—((S)-1-(7-(4-chloro-1-methyl-3-(methylsulfonamido)-1H-indazol-7-yl)-2-oxo-1,2,3,4-tetrahydropyrido[2,3-b]pyrazin-6-yl)-2-(3,5-difluorophenyl)ethyl)-2-((3bS,4aR)-3-(difluoromethyl)-5,5-difluoro-3b,4,4a,5-tetrahydro-1H-cyclopropa[3,4]cyclopenta[1,2-c]pyrazol-1-yl)acetamide]"
3,36.8 nM,"Cn1nc(NS(C)(=O)=O)c2c(Cl)ccc(-c3cc4[nH]c(=O)[nH]c4nc3[C@H](Cc3cc(F)cc(F)c3)NC(=O)Cn3nc(C(F)F)c4c3C(F)(F)[C@@H]3C[C@H]43)c21 [Example 109, N—((S)-1-(6-(4-chloro-1-methyl-3-(methylsulfonamido)-1H-indazol-7-yl)-2-oxo-2,3-dihydro-1H-imidazo[4,5-b]pyridin-5-yl)-2-(3,5-difluorophenyl)ethyl)-2-((3bS,4aR)-3-(difluoromethyl)-5,5-difluoro-3b,4,4a,5-tetrahydro-1H-cyclopropa[3,4]cyclopenta[1,2-c]pyrazol-1-yl)acetamide]"
4,11.9 nM,"Cn1nc(NS(C)(=O)=O)c2c(Cl)ccc(-c3cc4nc(C5CC5)oc4nc3[C@H](Cc3cc(F)cc(F)c3)NC(=O)Cn3nc(C(F)F)c4c3C(F)(F)[C@@H]3C[C@H]43)c21 [Example 110, N—((S)-1-(6-(4-chloro-1-methyl-3-(methylsulfonamido)-1H-indazol-7-yl)-2-cyclopropyloxazolo[5,4-b]pyridin-5-yl)-2-(3,5-difluorophenyl)ethyl)-2-((3bS,4aR)-3-(difluoromethyl)-5,5-difluoro-3b,4,4a,5-tetrahydro-1H-cyclopropa[3,4]cyclopenta[1,2-c]pyrazol-1-yl)acetamide]"
5,156 nM,"CC1(O)CN(c2nc3cc(-c4ccc(F)c(C(N)=O)c4)c([C@H](Cc4cc(F)cc(F)c4)NC(=O)Cn4nc(C(F)(F)F)c5c4C(F)(F)[C@@H]4C[C@H]54)nc3o2)C1 [Example 111, 5-(5-((S)-1-(2-((3bS,4aR)-5,5-difluoro-3-(trifluoromethyl)-3b,4,4a,5-tetrahydro-1H-cyclopropa[3,4]cyclopenta[1,2-c]pyrazol-1-yl)acetamido)-2-(3,5-difluorophenyl)ethyl)-2-(3-hydroxy-3-methylazetidin-1-yl)oxazolo[5,4-b]pyridin-6-yl)-2-fluorobenzamide]"
6,3.8 nM,"Cn1nc(NS(C)(=O)=O)c2c(Cl)ccc(-c3cc4sc(O)nc4nc3[C@H](Cc3cc(F)cc(F)c3)NC(=O)Cn3nc(C(F)F)c4c3C(F)(F)[C@@H]3C[C@H]43)c21 [Example 112, N—((S)-1-(6-(4-chloro-1-methyl-3-(methylsulfonamido)-1H-indazol-7-yl)-2-hydroxythiazolo[4,5-b]pyridin-5-yl)-2-(3,5-difluorophenyl)ethyl)-2-((3bS,4aR)-3-(difluoromethyl)-5,5-difluoro-3b,4,4a,5-tetrahydro-1H-cyclopropa[3,4]cyclopenta[1,2-c]pyrazol-1-yl)acetamide]"
7,8.1 nM,"Cn1nc(NS(C)(=O)=O)c2cccc(-c3cc4sc(O)nc4nc3[C@H](Cc3cc(F)cc(F)c3)NC(=O)Cn3nc(C(F)(F)F)c4c3C(F)(F)[C@@H]3C[C@H]43)c21 [Example 113, 2-((3bS,4aR)-5,5-difluoro-3-(trifluoromethyl)-3b,4,4a,5-tetrahydro-1H-cyclopropa[3,4]cyclopenta[1,2-c]pyrazol-1-yl)-N—((S)-2-(3,5-difluorophenyl)-1-(2-hydroxy-6-(1-methyl-3-(methylsulfonamido)-1H-indazol-7-yl)thiazolo[4,5-b]pyridin-5-yl)ethyl)acetamide]"
